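Results reflect a 48-hour exposure of cells in 96-well plates to compound at five concentrations. Abbreviation: GI50, concentration required for 50% inhibition of growth.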 The source made the active and inactive calls. Cut-off read from the data, not from the text of the source: active = GI50 up to about 1.1 µM and inactive = higher.
Legend:
Assay in all cases: NCI-60 cell line screen, 48 h
COLO 205 = tested on: COLO 205
HCT-116 = tested on: HCT-116
HL-60 = tested on: HL-60
HOP-62 = tested on: HOP-62
HOP-92 = tested on: HOP-92
KM-20L2 = tested on: KM-20L2
MCF7 = tested on: MCF7
OVCAR-3 = tested on: OVCAR-3
RPMI-8226 = tested on: RPMI-8226
SK-OV-3 = tested on: SK-OV-3
SNB-19 = tested on: SNB-19
SNB-78 = tested on: SNB-78
UACC-62 = tested on: UACC-62
XF498 = tested on: XF498
DU-145 = tested on: DU-145
M14 = tested on: M14
MDA-MB-435 = tested on: MDA-MB-435
MDA-N = tested on: MDA-N
SR = tested on: SR
T47D = tested on: T47D

Measured: GI50

O=C1C=C(C2OC(CO)C(O)C2O)C(=O)N1 (stereo not given)
inactive: COLO 205 76.9 µM | HCT-116 > 100 µM | HL-60 45.9 µM | HOP-62 > 100 µM | HOP-92 > 100 µM | KM-20L2 > 100 µM | MCF7 > 91.8 µM | OVCAR-3 > 100 µM | RPMI-8226 > 51.1 µM | SK-OV-3 > 100 µM | SNB-19 > 100 µM | SNB-78 > 100 µM | UACC-62 > 100 µM
active: XF498 < 0.01 µM

CCOC(=O)c1csc(NC(=O)CCN2CCCC2)n1
inactive: COLO 205 > 100 µM | DU-145 > 100 µM | HL-60 > 100 µM | HOP-62 > 100 µM | HOP-92 > 100 µM | M14 > 100 µM | MCF7 > 100 µM | MDA-MB-435 > 100 µM | MDA-N > 100 µM | OVCAR-3 > 100 µM | RPMI-8226 86.7 µM | SK-OV-3 > 100 µM | SNB-19 > 100 µM | SR 78.5 µM | T47D > 100 µM | UACC-62 > 100 µM

CC(=O)OCc1nnn2c1CCC2
inactive: HCT-116 > 100 µM | HL-60 > 100 µM | HOP-62 > 100 µM | HOP-92 > 100 µM | KM-20L2 > 100 µM | M14 > 100 µM | OVCAR-3 > 100 µM | SK-OV-3 > 100 µM | SNB-78 > 100 µM | SR > 100 µM | UACC-62 > 100 µM | XF498 > 100 µM

C/C(=N\Oc1cc(Cl)ncn1)c1ccccn1
inactive: COLO 205 > 100 µM | DU-145 48.9 µM | HCT-116 > 100 µM | HOP-62 38.1 µM | HOP-92 20.5 µM | M14 18.4 µM | MCF7 55.3 µM | MDA-MB-435 47.4 µM | MDA-N > 100 µM | OVCAR-3 20.2 µM | RPMI-8226 > 100 µM | SK-OV-3 92.5 µM | SNB-19 > 100 µM | SR 31.7 µM | T47D 30.2 µM | UACC-62 47.5 µM

COc1ccc(-c2cc3[nH]nc(N)c3c(=O)o2)cc1
inactive: COLO 205 > 100 µM | HCT-116 > 100 µM | HL-60 90.4 µM | HOP-92 > 100 µM | KM-20L2 > 100 µM | M14 > 100 µM | RPMI-8226 > 100 µM | SNB-19 > 100 µM | SNB-78 > 100 µM | SR > 100 µM | XF498 > 100 µM

COc1ccc(CN2C(=O)C(=O)N(C)C2=O)c2ccccc12
inactive: COLO 205 > 10 µM | DU-145 > 10 µM | HCT-116 > 10 µM | HL-60 > 10 µM | HOP-62 > 10 µM | M14 > 10 µM | MCF7 > 10 µM | MDA-MB-435 > 10 µM | MDA-N 7.06 µM | OVCAR-3 > 10 µM | RPMI-8226 > 10 µM | SK-OV-3 > 10 µM | SNB-19 > 10 µM | SR > 10 µM | T47D > 10 µM | UACC-62 > 10 µM

— ChEMBL document CHEMBL1201862, “PubChem BioAssay data set” (2004)
